Source: patent publication US10231967B2, “Compounds and their use as BACE inhibitors” (ASTRAZENECA AB, priority 2010, dated 2019)

Tested on: sAPPβ release in SH-SY5Y cells
Assay: sAPPβ release assay
Format: cell-based
Conditions: Homo sapiens, SH-SY5Y, 17 h, compounds incubated 17 h, MSD detection
Method in brief: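 SH-SY5Y cells were exposed to compounds at 1% DMSO final for 17 h at 37 °C. Secreted sAPPβ in 20 μL of medium was quantified by MSD electrochemiluminescence immunoassay with 1 nM detection antibody. Cell plates were then used in an ATP assay for cytotoxicity.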

Row | SMILES | IC50 [nM]
1 | CCC1=NC2(N=C1N)c1cc(-c3cccc(C#N)c3)ccc1C[C@]21CC[C@@H](OC)CC1 (stereo partly drawn) [Example 70, 3-[(1r,4r)-4″-amino-5″-ethyl-4-methoxy-3′H-dispiro[cyclohexane-1,2′-indene-1′,2″-imidazol]-6′-yl]benzonitrile] | 13
2 | CO[C@H]1CC[C@]2(CC1)Cc1ccc(-c3cc(C)cc(C#N)c3)cc1C21N=C(C)C(N)=N1 (stereo partly drawn) [Example 74, 3-[(1r,4r)-4″-Amino-4-methoxy-5″-methyl-3′H-dispiro[cyclohexane-1,2′-indene-1′,2″-imidazol]-6′-yl]-5-methylbenzonitrile] | 2.1
3 | CO[C@H]1CC[C@]2(CC1)Cc1ccc(C#N)cc1C21N=C(C)C(N)=N1 (stereo partly drawn) [Example 79, (1r,4r)-4″-Amino-4-methoxy-5″-methyl-3′H-dispiro[cyclohexane-1,2′-indene-1′,2″-imidazole]-6′-carbonitrile] | 171
4 | COCc1cccc(-c2ccc3c(c2)C2(N=C(C)C(N)=N2)[C@]2(CC[C@H](OC)CC2)C3)c1 (stereo partly drawn) [Example 80, (1r,4r)-4-Methoxy-6′-[3-(methoxymethyl)phenyl]-5″-methyl-3′H-dispiro[cyclohexane-1,2′-indene-1′,2″-imidazol]-4″-amine] | 13
5 | COCc1cc(F)cc(-c2ccc3c(c2)C2(N=C(C)C(N)=N2)[C@]2(CC[C@H](OC)CC2)C3)c1 (stereo partly drawn) [Example 81, (1r,4r)-6′-[3-Fluoro-5-(methoxymethyl)phenyl]-4-methoxy-5″-methyl-3′H-dispiro[cyclohexane-1,2′-indene-1′,2″-imidazol]-4″-amine] | 20
6 | CO[C@H]1CC[C@]2(CC1)Cc1ccc(-c3cncc(COCC(F)(F)F)c3)cc1C21N=C(C)C(N)=N1 (stereo partly drawn) [Example 82, (1r,4r)-4-Methoxy-5″-methyl-6′-{5-[(2,2,2-trifluoroethoxy)methyl]pyridin-3-yl}-3′H-dispiro[cyclohexane-1,2′-indene-1′,2″-imidazol]-4″-amine] | 36
7 | CO[C@H]1CC[C@]2(CC1)Cc1ccc(-c3cncc(C(F)(F)F)c3)cc1[C@@]21N=C(C)C(N)=N1 [Example 84, (1r,1′R,4R)-4-Methoxy-5″-methyl-6′-[5-(trifluoromethyl)pyridin-3-yl]-3′H-dispiro[cyclohexane-1,2′-indene-1′,2″-imidazol]-4″-amine] | 0.99
8 | CO[C@H]1CC[C@]2(CC1)Cc1ccc(-c3cc(C#N)cc(C(F)(F)F)c3)cc1[C@@]21N=C(C)C(N)=N1 [Example 85] | 0.8
9 | COc1cc(-c2ccc3c(c2)[C@@]2(N=C(C)C(N)=N2)[C@]2(CC[C@H](OC)CC2)C3)cc(C#N)c1F [Example 87, 5-[(1r,1′R,4R)-4″-Amino-4-methoxy-5″-methyl-3′H-dispiro[cyclohexane-1,2′-indene-1′,2″-imidazol]-6′-yl]-2-fluoro-3-methoxybenzonitrile] | 0.93
10 | CO[C@H]1CC[C@]2(CC1)Cc1ccc(-c3cc(F)cc(F)c3)cc1[C@@]21N=C(C)C(N)=N1 [Example 88, (1r,1′R,4R)-6′-(3,5-difluorophenyl)-4-methoxy-5″-methyl-3′H-dispiro[cyclohexane-1,2′-indene-1′,2″-imidazol]-4″-amine] | 4.8
11 | COc1cccc(-c2ccc3c(c2)[C@@]2(N=C(C)C(N)=N2)[C@]2(CC[C@H](OC)CC2)C3)c1F [Example 89, (1r,1′R,4R)-6′-(2-Fluoro-3-methoxyphenyl)-4-methoxy-5″-methyl-3′H-dispiro[cyclohexane-1,2′-indene-1′,2″-imidazol]-4′″-amine] | 1.7
12 | CO[C@H]1CC[C@]2(CC1)Cc1ccc(-c3cc(Br)cc(C#N)c3)cc1C21N=C(C)C(N)=N1 (stereo partly drawn) [Example 93, 3-[(1r,4r)-4″-Amino-4-methoxy-5″-methyl-3′H-dispiro[cyclohexane-1,2′-indene-1′,2″-imidazol]-6′-yl]-5-bromobenzonitrile] | 0.56
13 | CCc1cc(C#N)cc(-c2ccc3c(c2)C2(N=C(C)C(N)=N2)[C@]2(CC[C@H](OC)CC2)C3)c1 (stereo partly drawn) [Example 95, 3-[(1r,4r)-4″-Amino-4-methoxy-5″-methyl-3′H-dispiro[cyclohexane-1,2′-indene-1′,2″-imidazol]-6′-yl]-5-ethylbenzonitrile] | 3.6
14 | CO[C@H]1CC[C@]2(CC1)Cc1ccc(-c3ccc(F)cc3F)cc1[C@@]21N=C(C)C(N)=N1 [Example 103] | 14
15 | CO[C@H]1CC[C@]2(CC1)Cc1ccc(-c3cccc(Cl)c3Cl)cc1[C@@]21N=C(C)C(N)=N1 [Example 104, (1r,1′R,4R)-6′-(2,3-dichlorophenyl)-4-methoxy-5″-methyl-3′H-dispiro[cyclohexane-1,2′-indene-1′,2″-imidazol]-4″-amine] | 34
16 | CC1=NC2(N=C1N)c1cc(-c3cc(F)cc(F)c3)ccc1C[C@]21CC[C@@H](OC(F)F)CC1 (stereo partly drawn) [Example 109] | 28

Same assay, conditions: Homo sapiens, compounds incubated 17 h, MSD detection

Row | SMILES | IC50 [nM]
17 | CCC1=NC2(N=C1N)c1cc(-c3cncc(C#N)c3)ccc1C[C@]21CC[C@@H](OC)CC1 (stereo partly drawn) [Example 69, 5-[(1r,4r)-4″-Amino-5″-ethyl-4-methoxy-3′H-dispiro[cyclohexane-1,2′-indene-1′,2″-imidazol]-6′-yl]pyridine-3-carbonitrile] | 10
18 | CC#Cc1cncc(-c2ccc3c(c2)[C@@]2(N=C(C)C(N)=N2)[C@]2(CC[C@H](O)CC2)C3)c1 [Example 73, (1r,1′R,4R)-4″-Amino-5″-methyl-6′-[5-(prop-1-yn-1-yl)pyridin-3-yl]-3′H-dispiro[cyclohexane-1,2′-indene-1′,2″-imidazol]-4-ol] | 1
19 | CC1=NC2(N=C1N)c1cc(-c3cc(Cl)cc(C#N)c3)ccc1CC21CC1 (stereo not drawn) [Example 78, 3-(4″-Amino-5″-methyl-3′H-dispiro[cyclopropane-1,2′-indene-1′,2″-imidazol]-6′-yl)-5-chlorobenzonitrile] | 56
20 | CO[C@H]1CC[C@]2(CC1)Cc1ccc(-c3cncc(C)c3)cc1[C@@]21N=C(C)C(N)=N1 [Example 83, (1r,1′R,4R)-4-Methoxy-5″-methyl-6′-(5-methylpyridin-3-yl)-3′H-dispiro[cyclohexane-1,2′-indene-1′,2″-imidazol]-4″-amine] | 2.9
21 | CO[C@H]1CC[C@]2(CC1)Cc1ccc(-c3cc(C#N)cc(C(F)F)c3)cc1[C@@]21N=C(C)C(N)=N1 [Example 86, 3-[(1r,1′R,4R)-4″-Amino-4-methoxy-5-methyl-3′H-dispiro[cyclohexane-1,2′-indene-1′,2″-imidazol]-6′-yl]-5-(difluoromethyl)benzonitrile] | 1.1
22 | CO[C@H]1CC[C@]2(CC1)Cc1ccc(-c3ccccc3)cc1[C@@]21N=C(C)C(N)=N1 [Example 90, (1r,1′R,4R)-4-Methoxy-5″-methyl-6′-phenyl-3′H-dispiro[cyclohexane-1,2′-indene-1′,2″-imidazol]-4″-amine] | 14
23 | COc1cc(C#N)cc(-c2ccc3c(c2)C2(N=C(C)C(N)=N2)[C@]2(CC[C@H](OC)CC2)C3)c1 (stereo partly drawn) [Example 91, 3-[(1r,4r)-4″-Amino-4-methoxy-5″-methyl-3′H-dispiro[cyclohexane-1,2′-indene-1′,2″-imidazol]-6′-yl]-5-methoxybenzonitrile] | 0.62
24 | COCc1cc(C#N)cc(-c2ccc3c(c2)C2(N=C(C)C(N)=N2)[C@]2(CC[C@H](OC)CC2)C3)c1 (stereo partly drawn) [Example 96, 3-[(1r,4r)-4″-Amino-4-methoxy-5″-methyl-3′H-dispiro[cyclohexane-1,2′-indene-1′,2″-imidazol]-6′-yl]-5-(methoxymethyl)benzonitrile] | 3.5
25 | COc1ccc(F)c(-c2ccc3c(c2)[C@@]2(N=C(C)C(N)=N2)[C@]2(CC[C@H](OC)CC2)C3)c1 [Example 98, (1r,1′R,4R)-6′-(2-Fluoro-5-methoxyphenyl)-4-methoxy-5″-methyl-3′H-dispiro[cyclohexane-1,2′-indene-1′,2″-imidazol]-4′″-amine] | 0.82
26 | CO[C@H]1CC[C@]2(CC1)Cc1ccc(-c3cc(F)ccc3F)cc1[C@@]21N=C(C)C(N)=N1 [Example 99, (1r,1′R,4R)-6′-(2,5-Difluorophenyl)-4-methoxy-5′-methyl-3′H-dispiro[cyclohexane-1,2′-indene-1′,2″-imidazol]-4″-amine] | 5.7
27 | CO[C@H]1CC[C@]2(CC1)Cc1ccc(-c3cc(Cl)c(F)c(C#N)c3)cc1[C@@]21N=C(C)C(N)=N1 [Example 100, 5-[(1r,1′R,4R)-4″-amino-4-methoxy-5″-methyl-3′H-dispiro[cyclohexane-1,2′-indene-1′,2″-imidazol]-6′-yl]-3-chloro-2-fluorobenzonitrile] | 0.59
28 | CO[C@H]1CC[C@]2(CC1)Cc1ccc(-c3cccc(F)c3F)cc1[C@@]21N=C(C)C(N)=N1 [Example 101] | 6.3
29 | CO[C@H]1CC[C@]2(CC1)Cc1ccc(-c3cc(C#N)ccc3F)cc1[C@@]21N=C(C)C(N)=N1 [Example 102, 3-[(1r,1′R,4R)-4″-Amino-4-methoxy-5″-methyl-3′H-dispiro[cyclohexane-1,2′-indene-1′,2″-imidazol]-6′-yl]-4-fluorobenzonitrile] | 2.5
30 | CC1=NC2(N=C1N)c1cc(-c3cncc(C(F)(F)F)c3)ccc1C[C@]21CC[C@@H](OC(F)F)CC1 (stereo partly drawn) [Example 107] | 7.9
31 | CC1=NC2(N=C1N)c1cc(-c3cc(Cl)cc(C#N)c3)ccc1C[C@]21CC[C@@H](OC(F)F)CC1 (stereo partly drawn) [Example 108, 3-[(1r,4r)-4″-Amino-4-(difluoromethoxy)-5″-methyl-3′H-dispiro[cyclohexane-1,2′-indene-1′,2″-imidazol]-6′-yl]-5-chlorobenzonitrile] | 1.8
32 | COc1cc(-c2ccc3c(c2)C2(N=C(C)C(N)=N2)[C@]2(CC[C@H](OC(F)F)CC2)C3)cc(C#N)c1F (stereo partly drawn) [Example 110, 5-[(1r,4r)-4″-Amino-4-(difluoromethoxy)-5″-methyl-3′H-dispiro[cyclohexane-1,2′-indene-1′,2″-imidazol]-6′-yl]-2-fluoro-3-methoxybenzonitrile] | 4
33 | CC#Cc1cncc(-c2ccc3c(c2)C2(N=C(C)C(N)=N2)[C@]2(CC[C@](C)(OC)CC2)C3)c1 (stereo partly drawn) [Example 111, (1r,4r)-4-Methoxy-4,5″-dimethyl-6′-[5-(prop-1-yn-1-yl)pyridin-3-yl]-3′H-dispiro[cyclohexane-1,2′-indene-1′,2″-imidazol]-4″-amine] | 31
